From ChEMBL document CHEMBL1671689, “Activity of ceftaroline against recent emerging serotypes of Streptococcus pneumoniae in the United States” (2010)
Converted amounts (≈) assume the structure as drawn.

Tests used:
Format in all cases: functional
Streptococcus pneumoniae [1] = assay: Antimicrobial activity against Streptococcus pneumoniae serotype 35B assessed as percent susceptible isolates by broth microdilution method
Streptococcus pneumoniae [2] = assay: Antimicrobial activity against Streptococcus pneumoniae serotype 3 assessed as percent susceptible isolates by broth microdilution method
Streptococcus pneumoniae [3] = assay: Antimicrobial activity against Streptococcus pneumoniae serotype 7F assessed as percent susceptible isolates by broth microdilution method
Streptococcus pneumoniae [4] = assay: Antimicrobial activity against Streptococcus pneumoniae serotype 6C assessed as percent susceptible isolates by broth microdilution method
Streptococcus pneumoniae [5] = assay: Antimicrobial activity against Streptococcus pneumoniae serotype 23A assessed as percent susceptible isolates by broth microdilution method
Streptococcus pneumoniae [6] = assay: Antimicrobial activity against multiple drug resistant Streptococcus pneumoniae serotype 19F assessed as percent susceptible isolates by broth microdilution method
Streptococcus pneumoniae [7] = assay: Antimicrobial activity against multiple drug resistant Streptococcus pneumoniae serotype 19A assessed as percent susceptible isolates by broth microdilution method
Streptococcus pneumoniae [8] = assay: Antimicrobial activity against Streptococcus pneumoniae serotype 11A assessed as percent susceptible isolates by broth microdilution method
Streptococcus pneumoniae [9] = assay: Antimicrobial activity against Streptococcus pneumoniae serotype 3 by broth microdilution method
Streptococcus pneumoniae [10] = assay: Antimicrobial activity against multiple drug resistant Streptococcus pneumoniae serotype 6B assessed as percent susceptible isolates by broth microdilution method
Streptococcus pneumoniae [11] = assay: Antimicrobial activity against multiple drug resistant Streptococcus pneumoniae serotype 19F by broth microdilution method
Streptococcus pneumoniae [12] = assay: Antimicrobial activity against multiple drug resistant Streptococcus pneumoniae serotype 6B by broth microdilution method
Streptococcus pneumoniae [13] = assay: Antimicrobial activity against multiple drug resistant Streptococcus pneumoniae serotype 19A by broth microdilution method
Streptococcus pneumoniae [14] = assay: Antimicrobial activity against Streptococcus pneumoniae serotype 6C by broth microdilution method
Streptococcus pneumoniae [15] = assay: Antimicrobial activity against Streptococcus pneumoniae serotype 7F by broth microdilution method
Streptococcus pneumoniae [16] = assay: Antimicrobial activity against Streptococcus pneumoniae serotype 19A assessed as percent susceptible isolates by broth microdilution method
Streptococcus pneumoniae [17] = assay: Antimicrobial activity against Streptococcus pneumoniae serotype 35B by broth microdilution method
Streptococcus pneumoniae [18] = assay: Antimicrobial activity against Streptococcus pneumoniae serotype 22F assessed as percent susceptible isolates by broth microdilution method
Streptococcus pneumoniae [19] = assay: Antimicrobial activity against Streptococcus pneumoniae serotype 23B assessed as percent susceptible isolates by broth microdilution method
Streptococcus pneumoniae [20] = assay: Antimicrobial activity against Streptococcus pneumoniae serotype 19A by broth microdilution method
Streptococcus pneumoniae [21] = assay: Antimicrobial activity against Streptococcus pneumoniae serotype 11A by broth microdilution method
Streptococcus pneumoniae [22] = assay: Antimicrobial activity against Streptococcus pneumoniae serotype 15A assessed as percent susceptible isolates by broth microdilution method
Streptococcus pneumoniae [23] = assay: Antimicrobial activity against Streptococcus pneumoniae serotype 19F assessed as percent susceptible isolates by broth microdilution method

| SMILES | Activity (Streptococcus pneumoniae [1]) | Activity (Streptococcus pneumoniae [2]) | Activity (Streptococcus pneumoniae [3]) | Activity (Streptococcus pneumoniae [4]) | Activity (Streptococcus pneumoniae [5]) | Activity (Streptococcus pneumoniae [6]) | Activity (Streptococcus pneumoniae [7]) | Activity (Streptococcus pneumoniae [8]) | MIC50 (Streptococcus pneumoniae [9]) | MIC90 (Streptococcus pneumoniae [9]) | Activity (Streptococcus pneumoniae [10]) | MIC50 (Streptococcus pneumoniae [11]) | MIC90 (Streptococcus pneumoniae [11]) | MIC50 (Streptococcus pneumoniae [12]) | MIC90 (Streptococcus pneumoniae [12]) | MIC50 (Streptococcus pneumoniae [13]) | MIC90 (Streptococcus pneumoniae [13]) | MIC50 (Streptococcus pneumoniae [14]) | MIC90 (Streptococcus pneumoniae [14]) | MIC50 (Streptococcus pneumoniae [15]) | also measured |
| --- | --- | --- | --- | --- | --- | --- | --- | --- | --- | --- | --- | --- | --- | --- | --- | --- | --- | --- | --- | --- | --- |
| C[C@H]1COc2c(N3CCN(C)CC3)c(F)cc3c(=O)c(C(=O)O)cn1c23.C[C@H]1COc2c(N3CCN(C)CC3)c(F)cc3c(=O)c(C(=O)O)cn1c23.O [LEVOFLOXACIN] | 98.3% | 100% | 98.3% | 100% | 100% | 99.2% | 99.2% | 100% | 1 mg/L | 1 mg/L | 99.2% | 1 mg/L | 1 mg/L | 1 mg/L | 1 mg/L | 1 mg/L | 1 mg/L | 1 mg/L | 1 mg/L | 1 mg/L | MIC90 (Streptococcus pneumoniae [15]): 1 mg/L; Activity (Streptococcus pneumoniae [16]): 100%; MIC50 (Streptococcus pneumoniae [17]): 1 mg/L; MIC90 (Streptococcus pneumoniae [17]): 1 mg/L; Activity (Streptococcus pneumoniae [18]): 100%; Activity (Streptococcus pneumoniae [19]): 97%; MIC50 (Streptococcus pneumoniae [20]): 1 mg/L; MIC90 (Streptococcus pneumoniae [20]): 1 mg/L; MIC50 (Streptococcus pneumoniae [21]): 1 mg/L; MIC90 (Streptococcus pneumoniae [21]): 2 mg/L; Activity (Streptococcus pneumoniae [22]): 100%; Activity (Streptococcus pneumoniae [23]): 96.6% |
| CC1(C)S[C@@H]2[C@H](NC(=O)Cc3ccccc3)C(=O)N2[C@H]1C(=O)O [PENICILLIN G] | 98.3% | 100% | 98.3% | 100% | 100% | 11.4% | 11.4% | 100% | ≤ 0.03 mg/L | ≤ 0.03 mg/L | 11.4% | 4 mg/L (≈ 12 µM) | 4 mg/L (≈ 12 µM) | 4 mg/L (≈ 12 µM) | 4 mg/L (≈ 12 µM) | 4 mg/L (≈ 12 µM) | 4 mg/L (≈ 12 µM) | 0.5 mg/L (≈ 1.5 µM) | 1 mg/L (≈ 2.99 µM) | ≤ 0.03 mg/L | MIC (Streptococcus pneumoniae [9]): ≤ 0.03 mg/L; MIC (Streptococcus pneumoniae [15]): ≤ 0.03 mg/L; MIC90 (Streptococcus pneumoniae [15]): ≤ 0.03 mg/L; Activity (Streptococcus pneumoniae [16]): 46.6%; MIC50 (Streptococcus pneumoniae [17]): 2 mg/L (≈ 5.98 µM); MIC90 (Streptococcus pneumoniae [17]): 2 mg/L (≈ 5.98 µM); Activity (Streptococcus pneumoniae [18]): 100%; Activity (Streptococcus pneumoniae [19]): 100%; MIC50 (Streptococcus pneumoniae [20]): 4 mg/L (≈ 12 µM); MIC90 (Streptococcus pneumoniae [20]): 4 mg/L (≈ 12 µM); MIC (Streptococcus pneumoniae [21]): ≤ 0.03 mg/L; MIC50 (Streptococcus pneumoniae [21]): ≤ 0.03 mg/L; MIC90 (Streptococcus pneumoniae [21]): ≤ 0.03 mg/L; Activity (Streptococcus pneumoniae [22]): 100%; Activity (Streptococcus pneumoniae [23]): 37.9% |
| CC1(C)S[C@@H]2[C@H](NC(=O)COc3ccccc3)C(=O)N2[C@H]1C(=O)O [PENICILLIN V] | 10.2% | 98.8% | 10.2% | 37.2% | 36.4% | 0% | 0% | 95.9% | ≤ 0.03 mg/L | ≤ 0.03 mg/L | 0% | 4 mg/L (≈ 11.4 µM) | 4 mg/L (≈ 11.4 µM) | 4 mg/L (≈ 11.4 µM) | 4 mg/L (≈ 11.4 µM) | 4 mg/L (≈ 11.4 µM) | 4 mg/L (≈ 11.4 µM) | 0.5 mg/L (≈ 1.43 µM) | 1 mg/L (≈ 2.85 µM) | ≤ 0.03 mg/L | MIC (Streptococcus pneumoniae [9]): ≤ 0.03 mg/L; MIC (Streptococcus pneumoniae [15]): ≤ 0.03 mg/L; MIC90 (Streptococcus pneumoniae [15]): ≤ 0.03 mg/L; Activity (Streptococcus pneumoniae [16]): 13.8%; MIC50 (Streptococcus pneumoniae [17]): 2 mg/L (≈ 5.71 µM); MIC90 (Streptococcus pneumoniae [17]): 2 mg/L (≈ 5.71 µM); Activity (Streptococcus pneumoniae [18]): 100%; Activity (Streptococcus pneumoniae [19]): 84.8%; MIC50 (Streptococcus pneumoniae [20]): 4 mg/L (≈ 11.4 µM); MIC90 (Streptococcus pneumoniae [20]): 4 mg/L (≈ 11.4 µM); MIC (Streptococcus pneumoniae [21]): ≤ 0.03 mg/L; MIC50 (Streptococcus pneumoniae [21]): ≤ 0.03 mg/L; MIC90 (Streptococcus pneumoniae [21]): ≤ 0.03 mg/L; Activity (Streptococcus pneumoniae [22]): 10.5%; Activity (Streptococcus pneumoniae [23]): 20.7% |
